Reference: patent US4814485A, “4-aminobutanoic acid derivatives, process of preparation and use thereof” (Sanofi, priority 1985, dated 1989)

Biological target: T1, human plasma renin (Homo sapiens, UniProt P00797)
T1 construct: human plasma renin activity; from tissue; host or cells: human plasma
T1 sequence (P00797 67-406): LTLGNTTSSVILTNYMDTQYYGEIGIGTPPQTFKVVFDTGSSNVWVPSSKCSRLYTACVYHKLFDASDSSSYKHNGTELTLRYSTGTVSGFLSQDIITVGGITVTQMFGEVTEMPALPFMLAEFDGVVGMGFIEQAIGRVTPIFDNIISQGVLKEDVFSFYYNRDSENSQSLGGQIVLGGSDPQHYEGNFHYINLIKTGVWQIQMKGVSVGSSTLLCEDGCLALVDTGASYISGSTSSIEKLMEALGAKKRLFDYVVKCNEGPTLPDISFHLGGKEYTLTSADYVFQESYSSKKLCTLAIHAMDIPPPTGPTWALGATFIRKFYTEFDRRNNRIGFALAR
Test: inhibitory action on the human plasma renin activity
Type: biochemical
Settings: pH=6, method of European patent application No. 104,964, read-out: IC50 (dose of compound under study which causes 50% inhibition of the human plasma renin activity)
Text: The peptide so obtained was studied for determining its inhibitory action on the human plasma renin activity using the method described in European patent application No. 104,964.

“BOC-Phe-Nle-APHBA-Ala-Sta-OCH3 [SR 44205]” showed an IC50 of 1000 nM.
